Data: patent publication US7951815B2, “Substituted 1,4,8-triazaspiro [4,5]decan-2-one compounds” (Gruenenthal GmbH, priority 2004, dated 2011)
Like-named read-outs stand apart in the source and are kept apart here.

Columns and labels:
[1] = biological target: T1, 5-HT transporter (Rattus norvegicus, UniProt P31652); assay: Inhibition of 5-HT uptake in rat brain synaptosomes; assay type: biochemical; conditions: rat, 1 μM; for inhibition at 1 µM: read-out: Uptake 5-HT, % inhibition
T1 construct: synaptosomes of rat brain areas are freshly isolated; from tissue; host or cells: rat brain synaptosomes (P2 fraction) from marrow and pons
T1 sequence (P31652 whole entry): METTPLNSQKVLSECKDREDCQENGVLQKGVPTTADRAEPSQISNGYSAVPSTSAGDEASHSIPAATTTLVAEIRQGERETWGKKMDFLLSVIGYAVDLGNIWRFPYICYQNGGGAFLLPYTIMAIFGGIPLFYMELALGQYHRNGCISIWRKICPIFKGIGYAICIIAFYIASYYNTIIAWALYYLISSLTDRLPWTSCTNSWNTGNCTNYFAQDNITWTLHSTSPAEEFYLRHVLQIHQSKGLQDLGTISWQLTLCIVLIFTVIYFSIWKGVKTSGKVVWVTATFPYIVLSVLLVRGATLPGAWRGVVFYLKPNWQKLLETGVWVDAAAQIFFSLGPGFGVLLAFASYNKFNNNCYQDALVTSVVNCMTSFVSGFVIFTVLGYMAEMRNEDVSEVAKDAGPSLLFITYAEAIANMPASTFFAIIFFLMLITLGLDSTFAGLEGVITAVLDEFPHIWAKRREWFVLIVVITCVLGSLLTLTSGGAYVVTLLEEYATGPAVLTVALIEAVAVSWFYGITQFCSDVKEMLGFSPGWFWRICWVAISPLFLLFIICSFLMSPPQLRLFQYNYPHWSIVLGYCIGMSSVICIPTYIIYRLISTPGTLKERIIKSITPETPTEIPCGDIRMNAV

[2] = tested on: NA transporter; assay: Inhibition of noradrenaline uptake in rat brain synaptosomes; assay type: biochemical; conditions: Table III
[3] = tested on: batrachotoxin (BTX) binding site of the sodium channel; assay: Affinity to the batrachotoxin (BTX) binding site of the sodium channel; conditions: rat cerebrocortex synaptosomes, test concentration not given

## Cc1ccc(C(=O)N2CCC3(CC2)NC(Cc2ccccc2)C(=O)N3C)cc1F (stereo not drawn) [Example 148, 3-Benzyl-8-(3-fluoro-4-methylbenzoyl)-1-methyl-1,4,8-triazaspiro[4,5]decan-2-one]
[1]; Table III
  inhibition at 1 µM: 43%
[2]
  Uptake (NA), rat, 10 μM, % inhibition: 32%

## N#Cc1cccc(CN2C(=O)CNC23CCN(C(=O)c2cc(C(F)(F)F)cc(C(F)(F)F)c2)CC3)c1 [Example 273, 3-[8-(3,5-Bis-trifluoromethylbenzoyl)-2-oxo-1,4,8-triazaspiro[4,5]dec-1-ylmethyl]benzonitrile]
[1]; Table III
  inhibition at 1 µM: 51%
[2]
  Uptake (NA), rat, 10 μM, % inhibition: 38%

## C=CCN1C(=O)C(CCSC)NC12CCN(C(=O)C1CC1)CC2 (stereo not drawn) [Example 281, 1-Allyl-8-cyclopropanecarbonyl-3-(2-methylsulfanylethyl)-1,4,8-triazaspiro[4,5]decan-2-one]
[1]; Table III
  inhibition at 1 µM: 56%
[2]
  Uptake (NA), rat, 10 μM, % inhibition: 30%

## COc1cc(C(=O)N2CCC3(CC2)NCC(=O)N3Cc2ccccc2F)cc(OC)c1OC [Example 271, 1-(2-Fluorobenzyl)-8-(3,4,5-trimethoxybenzoyl)-1,4,8-triazaspiro[4,5]decan-2-one]
[1]; Table III
  inhibition at 1 µM: 44%
[2]
  Uptake (NA), rat, 10 μM, % inhibition: 31%

## CSCCC1NC2(CCN(C(=O)c3cccnc3Oc3ccccc3)CC2)N(C)C1=O (stereo not drawn) [Example 120, 1-Methyl-3-(2-methylsulfanylethyl)-8-(2-phenoxypyridin-3-carbonyl)-1,4,8-triazaspiro[4,5]decan-2-one]
[2]
  Uptake (NA), rat, 10 μM, % inhibition: 32%

## Cc1cccc(C(=O)N2CCC3(CC2)NCC(=O)N3CCOc2ccccc2)c1 [Example 86, 8-(3-Methylbenzoyl)-1-(2-phenoxyethyl)-1,4,8-triazaspiro[4,5]decan-2-one]
[1]; Table III
  inhibition at 1 µM: 50%
[2]
  Uptake (NA), rat, 10 μM, % inhibition: 38%

## CSCCC1NC2(CCN(C(=O)c3cccc(F)c3)CC2)N(C)C1=O (stereo not drawn) [Example 121, 8-(3-Fluorobenzoyl)-1-methyl-3-(2-methylsulfanylethyl)-1,4,8-triazaspiro[4,5]decan-2-one]
[1]; Table III
  inhibition at 1 µM: 41%
[2]
  Uptake (NA), rat, 10 μM, % inhibition: 37%

## CCCCN1C(=O)C(CCSC)NC12CCN(C(=O)c1ccc(C#N)cc1)CC2 (stereo not drawn) [Example 125, 4-[1-Butyl-3-(2-methylsulfanylethyl)-2-oxo-1,4,8-triazaspiro[4,5]decan-8-carbonyl]benzonitrile]
[1]; Table III
  inhibition at 1 µM: 44%
[2]
  Uptake (NA), rat, 10 μM, % inhibition: 36%

## CCOC(=O)CN1C(=O)C(CCSC)NC12CCN(C(=O)c1ccccc1C(=O)OCc1ccccc1)CC2 (stereo not drawn) [Example 332, Benzyl 2-[1-ethoxycarbonylmethyl-3-(2-methylsulfanylethyl)-2-oxo-1,4,8-triazaspiro[4,5]decan-8-carbonyl]benzoate]
[2]
  Uptake (NA), rat, 10 μM, % inhibition: 36%

## CCCCN1C(=O)C(CCSC)NC12CCN(C(=O)Cc1ccc(OC)c(OC)c1)CC2 (stereo not drawn) [Example 97, 1-Butyl-8-[2-(3,4-dimethoxyphenyl)acetyl]-3-(2-methylsulfanylethyl)-1,4,8-triazaspiro[4,5]decan-2-one]
[1]; Table III
  inhibition at 1 µM: 67%
[2]
  Uptake (NA), rat, 10 μM, % inhibition: 30%

## Cc1cccc(C(=O)N2CCC3(CC2)NC(=O)C(Cc2ccccc2)N3)c1C (stereo not drawn) [Example 108, 3-Benzyl-8-(2,3-dimethylbenzoyl)-1,4,8-triazaspiro[4,5]decan-2-one]
[2]
  Uptake (NA), rat, 10 μM, % inhibition: 37%

## O=C(C1CCCCC1)N1CCC2(CC1)NCC(=O)N2CCOc1ccccc1 [Example 123, 8-Cyclohexanecarbonyl-1-(2-phenoxyethyl)-1,4,8-triazaspiro[4,5]decan-2-one]
[2]
  Uptake (NA), rat, 10 μM, % inhibition: 36%

## CC(C)CC1NC2(CCN(C(=O)COCc3ccccc3)CC2)NC1=O (stereo not drawn) [Example 80, 8-(2-Benzyloxyacetyl)-3-isobutyl-1,4,8-triazaspiro[4,5]decan-2-one]
[2]
  Uptake (NA), rat, 10 μM, % inhibition: 30%

## CN1C(=O)C(Cc2ccccc2)NC12CCN(C(=O)c1ccc([N+](=O)[O-])cc1)CC2 (stereo not drawn) [Example 238, 3-Benzyl-1-methyl-8-(4-nitrobenzoyl)-1,4,8-triazaspiro[4,5]decan-2-one]
[2]
  Uptake (NA), rat, 10 μM, % inhibition: 31%

## CSCCC1NC2(CCN(C(=O)c3ccc4c(c3)OCO4)CC2)N(Cc2cccc(C#N)c2)C1=O (stereo not drawn) [Example 138, 3-[8-(Benzo[1,3]dioxol-5-carbonyl)-3-(2-methylsulfanylethyl)-2-oxo-1,4,8-triazaspiro[4,5]dec-1-ylmethyl]benzonitrile]
[2]
  Uptake (NA), rat, 10 μM, % inhibition: 30%

## CC(C)CC1NC2(CCN(C(=O)c3sccc3Cl)CC2)NC1=O (stereo not drawn) [Example 94, 8-(3-Chlorothiophene-2-carbonyl)-3-isobutyl-1,4,8-triazaspiro[4,5]decan-2-one]
[2]
  Uptake (NA), rat, 10 μM, % inhibition: 38%

## C=CCCC(=O)N1CCC2(CC1)NC(Cc1ccccc1)C(=O)N2C (stereo not drawn) [Example 139, 3-Benzyl-1-methyl-8-pent-4-enoyl-1,4,8-triazaspiro[4,5]decan-2-one]
[2]
  Uptake (NA), rat, 10 μM, % inhibition: 31%

## CC(C)C1NC2(CCN(C(=O)c3c(F)c(F)c(F)c(F)c3F)CC2)NC1=O (stereo not drawn) [Example 95, 3-Isopropyl-8-pentafluorobenzoyl-1,4,8-triazaspiro[4,5]decan-2-one]
[2]
  Uptake (NA), rat, 10 μM, % inhibition: 31%

## COC(=O)c1ccc(CN2C(=O)CNC23CCN(C(=O)c2ccnc(Cl)c2)CC3)cc1 [Example 272, Methyl 4-[8-(2-Chloropyridin-4-earbonyl)-2-oxo-1,4,8-triazaspiro[4,5]dec-1-ylmethyl]benzoate]
[2]
  Uptake (NA), rat, 10 μM, % inhibition: 31%

## CCCC(C)C(=O)N1CCC2(CC1)NC(CC(C)C)C(=O)N2CC(=O)OCC (stereo not drawn) [Example 291, Ethyl [3-isobutyl-8-(2-methylpentanoyl)-2-oxo-1,4,8-triazaspiro[4,5]dec-1-yl]acetate]
[1]; Table III
  inhibition at 1 µM: 38%
[3]; Table III
  BTX inhibition: 33

## CC(C)C1NC2(CCN(C(=O)c3ccccc3C(=O)OCc3ccccc3)CC2)N(Cc2ccccc2)C1=O (stereo not drawn) [Example 236, Benzyl 2-(1-benzyl-3-isopropyl-2-oxo-1,4,8-triazaspiro[4,5]decan-8-carbonyl)benzoate]
[1]; Table III
  inhibition at 1 µM: 48%
[3]; Table III
  BTX inhibition: 50

## Cl.O=C(CCc1ccccc1)N1CCC2(CC1)N[C@@H](Cc1ccccc1)C(=O)N2Cc1ccccc1 [Example 58, 1,3-(S)-dibenzyl-8-(3-phenylpropionyl)-1,4,8-triazaspiro[4,5]decan-2-one hydrochloride]
[1]; Table II
  inhibition at 1 µM: 46%
[3]; Table II
  BTX inhibition: 46

## CCCCN1C(=O)C(CCSC)NC12CCN(C(=O)C1COc3ccc(Cl)cc3C1)CC2 (stereo not drawn) [Example 150, 1-Butyl-8-(6-Chloro-2H-chroman-3-carbonyl)-3-(2-methylsulfanylethyl)-1,4,8-triazaspiro[4,5]decan-2-one]
[1]; Table III
  Uptake 5-HT, rat, 1 μM, % inhibition: 72%
[3]; Table III
  BTX inhibition: 56

## CCOC(=O)CN1C(=O)C(Cc2ccccc2)NC12CCN(C(=O)CC(C)C)CC2 (stereo not drawn) [Example 294, Ethyl [3-benzyl-8-(3-methylbutyryl)-2-oxo-1,4,8-triazaspiro[4,5]dec-1-yl]acetate]
[1]; Table III
  inhibition at 1 µM: 53%
[3]; Table III
  BTX inhibition: 33

## Cc1nnsc1C(=O)N1CCC2(CC1)NC(Cc1ccccc1)C(=O)N2Cc1ccccc1 (stereo not drawn) [Example 177, 1,3-Dibenzyl-8-(4-methyl[1,2,3]thiadiazole-5-carbonyl)-1,4,8-triazaspiro[4,5]decan-2-one]
[1]; Table III
  inhibition at 1 µM: 79%
[3]; Table III
  BTX inhibition: 30
